According to patent US20210196719A1, “USE OF CDK4/6 INHIBITOR IN COMBINATION WITH EGFR INHIBITOR IN THE PREPARATION OF MEDICAMENT FOR TREATING TUMOR DISEASES” (JIANGSU HENGRUI MEDICINE CO., LTD., priority 2018, published 2021):
Where two headings read alike, the source gives them in different places.

Experiments:
[1] = tested on: human non-small cell lung adenocarcinoma cells (NCI-H1975); assay: Proliferation inhibition of NCI-H1975 cells (SRB method, 7 days); format: cell-based; conditions: 168 h, read-out: Inhibition rate (%)
[2] = tested on: human lung cancer NCI-H1975 transplanted tumor; assay: Human lung cancer NCI-H1975 transplanted tumor model of nude mice; conditions: for Tumor volume (mm^3) D 1: D 1 (at grouping); for Tumor volume (mm^3) D 1 / Tumor weight / RTV (relative tumor volume) / Tumor volume (mm^3) D 22: x ± SE; for Tumor weight: D 22, after sacrifice; for T/C(%) (relative tumor growth rate): TRTV/CRTV; for RTV (relative tumor volume): Vt/V0; for Tumor volume (mm^3) D 22: intragastric q.d. 21 days, gefitinib 30, drug A 100(50), drug B 5 mg/kg
[3] = mouse, in vivo
[4] = Body weight of nude mice in the NCI-H1975 transplanted tumor study; conditions: x ± SE

Q: For C=CC(=O)Nc1cc(Nc2nccc(-c3cn(C4CC4)c4ccccc34)n2)c(OC)cc1N(C)CCN(C)C [Drug B], which inhibition at 0.005 µM ([1]; Drug B alone 5 nM) is on record?
A: 50.3%

Q: And the inhibition at 0.01 µM ([1]; Drug B alone 10 nM)?
A: 53.8%

Q: And the “Tumor volume (mm^3) D 1” value [2]?
A: 130 ± 44 mm^3

Q: And the “Tumor weight” value [2]?
A: 0.1091 ± 0.0621 g

Q: And the “T/C(%) (relative tumor growth rate)” value ([2]; D 22)?
A: 26.14%

Q: What about the “RTV (relative tumor volume)” value ([2]; D 22) of the same compound?
A: 1.25±0.53

Q: What about the “IR (%) (tumor inhibition percentage)” value ([2]; D 22, by tumor weight vs control) of the same compound?
A: 81.69%

Q: And the “Tumor volume (mm^3) D 22” value ([2]; D 22)?
A: 125±58 mm^3

Q: What about the “Average body weight (g) D 1” value [3] of the same compound?
A: 22.8 ± 0.7 g

Q: What does the source list for COc1cc2ncnc(Nc3ccc(F)c(Cl)c3)c2cc1OCCCN1CCOCC1 [Gefitinib, gefitinib, reference compound]?
A: Average body weight (g) D 1 ([4]; D 1, n=3): 21.8 ± 0.6 g; Average body weight (g) D 22 ([4]; D 22, intragastric q.d. 21 days, gefitinib 30, drug A 100(50), drug B 5 mg/kg): 24.5 ± 0.8 g; Tumor volume (mm^3) D 1 [2]: 130 ± 41 mm^3; Tumor weight [2]: 0.4097 ± 0.1605 g; T/C(%) (relative tumor growth rate) ([2]; D 22): 66.81%; RTV (relative tumor volume) ([2]; D 22): 3.18±0.65; Tumor volume (mm^3) D 22 ([2]; D 22): 477±162 mm^3
